In patent US20160009763A1, “PEPTIDE MOLECULAR MATERIALS” (National Chiao Tung University, priority 2014, published 2016):
Non-standard residues stand in square brackets, D forms with d. Residues, ends and D or L forms follow the SMILES beside them. ξ: configuration not given here. *: point of attachment. Phenylacetyl(2,3,4,5,6-F5) = O=C(Cc1c(F)c(F)c(F)c(F)c1F)*; Phenylacetyl(4-F) = O=C(Cc1ccc(F)cc1)*; Hydrocinnamoyl = O=C(CCc1ccccc1)*; Ile(3ξ) = CCC(C)[C@H](N)C(=O)O; PhAc = O=C(Cc1ccccc1)*; Bz = O=C(c1ccccc1)*

Experiments:
[1] = Rheological test of hydrogels (angular frequency sweep); type: physicochemical; settings: angular frequency sweep 0.1 to 100 rad/s, strain=0.8%, 25° C.
Protocol: In the present invention, Rheological test was performed by Anton Paar rheometer. MTT cell viability assay was performed by Sunrise absorbance microplate reader (DV990/BV4 GDV Programmable MPT reader).
Rheological tests of hydrogels were performed by Anton Paar rheometer. 25 mm parallel plate was used in the experimentation. 400 μL of hydrogels (A) to (R) were placed on the parallel plate. Angular frequency sweep test: measurement range (frequency 0.1 to 100 rad/s, strain=0.8%) is 13 points per 10 rounds. Sweep model is “logarithm (log)” and the operation temperature is 25° C.
In FIG. 3, G′ represents storage modulus, and G″ represents loss modulus. The higher G′ and G″ are, the better stability the hydrogel is.

[2] = Phase inversion temperature (Tgel-sol) test of hydrogels; type: physicochemical; settings: heated 2° C./min until hydrogel began to flow
Protocol: Hydrogels (A) to (R) were obliquely placed in water bath while a beaker including water and a thermometer was also placed in the water bath. The hydrogels were heated (2° C./min) until such hydrogels began to flow (the gel phase was changed to the sol phase). The inversion temperatures when the hydrogels began to flow were recorded, and such temperatures were the phase inversion temperatures of hydrogels.

[3] = State of hydrogels at 37° C. and 4° C. (TEM images); type: physicochemical
Protocol: The material, technique and general process in the present invention are suitable for the following examples. All used chemical reagents and solutions can be obtained from suppliers. ^1H and ^13C spectrums were measured by Bruker DRX-300. LC-MS was measured by MICROMASS Q-Tof. TEM was measured by Hitachi HT7700 Bio-transmission electron microscope.

[4] = MTT cell viability assay, Hela cell; type: cell-based; settings: human, HeLa cells, hydrogel up to 500 μM
Protocol: (§1) The bio-compatibility of the hydrogels prepared from the different peptide materials was measured by MTT cell viability assay.
(§2) MTT cell viability assay was performed by Sunrise absorbance microplate reader (DV990/BV4 GDV Programmable MPT reader). Various cells were seeded in a 24-well plate containing 0.5 mL medium (DMEM) with 10% fetal bovine serum (FBS) and 1% penicillin. In each well, the cell concentration was 50000 cells and cells were cultured for 24 hours. After seeding the cells, hydrogels with the different concentrations ([…]) were added. The medium in each well was replaced with the flesh medium containing 0.5 mL of MTT reagent (4 mg mL^−1) after 24 and 48 hours. After an additional 4 hours, the medium containing MTT reagent was removed and DMSO (0.5 mL/well) was added to dissolve formazan crystals. The cells in the 24-well plate were transferred to a 96-well plate. The optical densities of such obtained solutions were measured at 595 nm by Sunrise absorbance microplate reader (DV990/BV4 GDV Programmable MPT reader).
(§3) The untreated cells were used as a comparative example. The cell viability was calculated based on the following equation:
(§4) Cell viability(%)=ODsample/ODcomparative example

Hela cell [5] = experiment: MTT cell viability assay, Hela cell; type: cell-based; settings: Homo sapiens, read-out: IC50 inhibition concentration
Protocol: as §1, §2, §3, §4

[6] = MTT cell viability assay, CTX TNA2 cell; type: cell-based; settings: rat, CTX TNA2 cells, hydrogel up to 500 μM
Protocol: as §1, §2, §3, §4

CTX TNA2 cell [7] = experiment: MTT cell viability assay, CTX TNA2 cell; type: cell-based; settings: read-out: IC50 inhibition concentration
Protocol: as §1, §2, §3, §4

[8] = MTT cell viability assay, MCF-7 cell; type: cell-based; settings: human, MCF-7 cells, hydrogel up to 500 μM
Protocol: as §1, §2, §3, §4

MCF-7 cell = experiment: MTT cell viability assay, MCF-7 cell; type: cell-based; settings: Homo sapiens, MCF7, read-out: IC50 inhibition concentration
Protocol: as §1, §2, §3, §4

Hela cell [9] = experiment: Wound healing assay, Hela cell; type: cell-based; settings: medium with 1 wt % of hydrogel
Protocol: Various cells were washed with PBS (phosphate buffer) twice and were suspended in a T-75 tissue culture flask. 0.25% trypsin containing 0.1% EDTA was added and then the cells were re-suspended in 5 mL of complete medium. 30000 cells (in 3 mL of medium) were placed in each vial on a 6-well plate to form a fusion monolayer. […] 2 mL of PBS was used twice to remove the floating cells, and was then replaced with 3 mL of complete medium. The image taken at 0 hour was used as a reference point. […] The images at different hours were taken at an appropriate region. Control: no compound added.

CTX TNA2 cell [10] = experiment: Wound healing assay, CTX TNA2 cell; type: cell-based; settings: medium with 1 wt % of hydrogel, versus Control
Protocol: Various cells were washed with PBS (phosphate buffer) twice and were suspended in a T-75 tissue culture flask. 0.25% trypsin containing 0.1% EDTA was added and then the cells were re-suspended in 5 mL of complete medium. 30000 cells (in 3 mL of medium) were placed in each vial on a 6-well plate to form a fusion monolayer. After the adhesion for 24 hours, the cell monolayer was scratched by a p200 pipet tip to create a wound. 2 mL of PBS was used twice to remove the floating cells, and was then replaced with 3 mL of complete medium. The image taken at 0 hour was used as a reference point. The medium was replaced with 3 mL of medium containing 1 wt % of hydrogel and the plate was incubated at 37° C. and 5% CO2 for 24 hours. The images at different hours were taken at an appropriate region. Control: no compound added.

Compound	storage modulus (G′) [1]	phase inversion temperature Tgel-sol [2]	also measured
O=C(Cc1c(F)c(F)c(F)c(F)c1F)N[C@@H](Cc1ccccc1)C(=O)O [hydrogel (A), PFB-Phe]	2×10^3 Pa	56 °C	wound healing after 48 hours (Hela cell [9]): healed completely
CCC(C)[C@H](NC(=O)CCc1ccccc1)C(=O)N[C@@H](CCCCN)C(=O)N[C@H](C(=O)N[C@@H](C)C(=O)N[C@H](C(=O)O)C(C)C)C(C)C (stereo partly drawn) [hydrogel (Q), 3-Phenylpropionic Acid-Ile-Lys-Val-Ala-Val] (Hydrocinnamoyl-[Ile(3ξ)]KVAV-OH)	1×10^4 Pa	> 90 °C	–
CCC(C)[C@H](NC(=O)Cc1ccccc1)C(=O)N[C@@H](CCCCN)C(=O)N[C@H](C(=O)N[C@@H](C)C(=O)N[C@H](C(=O)O)C(C)C)C(C)C (stereo partly drawn) [hydrogel (P), Phenylacetic Acid-Ile-Lys-Val-Ala-Val] (PhAc-[Ile(3ξ)]KVAV-OH)	6×10^3 Pa	65 °C	–
CCC(C)[C@H](NC(=O)c1ccccc1)C(=O)N[C@@H](CCCCN)C(=O)N[C@H](C(=O)N[C@@H](C)C(=O)N[C@H](C(=O)O)C(C)C)C(C)C (stereo partly drawn) [hydrogel (O), Benzoic Acid-Ile-Lys-Val-Ala-Val] (Bz-[Ile(3ξ)]KVAV-OH)	6×10^3 Pa	62 °C	–
CCC(C)[C@H](NC(=O)Cc1c(F)c(F)c(F)c(F)c1F)C(=O)N[C@@H](Cc1ccccc1)C(=O)O (stereo partly shown) [hydrogel (H), PFB-Ile-Phe]	1×10^4 Pa	71 °C	–
CCC(C)[C@H](NC(=O)Cc1ccc(F)cc1)C(=O)N[C@@H](CCCCN)C(=O)N[C@H](C(=O)N[C@@H](C)C(=O)N[C@H](C(=O)O)C(C)C)C(C)C (stereo partly drawn) [hydrogel (N), 4-Fluorophenylacetic Acid-Ile-Lys-Val-Ala-Val] ({Phenylacetyl(4-F)}-[Ile(3ξ)]KVAV-OH)	1×10^4 Pa	66 °C	–
CC(C)[C@H](NC(=O)Cc1c(F)c(F)c(F)c(F)c1F)C(=O)N[C@@H](Cc1ccccc1)C(=O)O [hydrogel (G), PFB-Val-Phe]	6×10^4 Pa	72 °C	–
O=C(Cc1ccc(F)cc1)N[C@@H](Cc1ccccc1)C(=O)N[C@@H](Cc1ccccc1)C(=O)O [hydrogel (K), 4-Fluorobenzyl-Phe-Phe]	6×10^3 Pa	46 °C	–
CCC(C)[C@H](NC(=O)Cc1c(F)c(F)c(F)c(F)c1F)C(=O)N[C@@H](CCCCN)C(=O)N[C@H](C(=O)N[C@@H](C)C(=O)N[C@H](C(=O)O)C(C)C)C(C)C (stereo partly drawn) [hydrogel (M), PFB-Ile-Lys-Val-Ala-Val] ({Phenylacetyl(2,3,4,5,6-F5)}-[Ile(3ξ)]KVAV-OH)	1×10^3 Pa	42 °C	–
CCC(C)[C@H](NC(=O)[C@H](Cc1ccccc1)NC(=O)Cc1c(F)c(F)c(F)c(F)c1F)C(=O)N[C@@H](CCCCN)C(=O)N[C@H](C(=O)N[C@@H](C)C(=O)N[C@H](C(=O)O)C(C)C)C(C)C (stereo partly drawn) [hydrogel (R), PFB-Phe-Ile-Lys-Val-Ala-Val] ({Phenylacetyl(2,3,4,5,6-F5)}-F[Ile(3ξ)]KVAV-OH)	1.0×10^3 Pa	40 °C	–
CC(C)[C@H](NC(=O)[C@H](Cc1ccccc1)NC(=O)Cc1c(F)c(F)c(F)c(F)c1F)C(=O)O [hydrogel (F), PFB-Phe-Val]	3×10^3 Pa	46 °C	wound healing after 48 hours (Hela cell [9]): healed completely

Now from value to molecule, other results behind:

storage modulus (G′) [1]	phase inversion temperature Tgel-sol [2]	Compound	also measured
4×10^2 Pa	38 °C	O=C(Cc1c(F)c(F)c(F)c(F)c1F)NCC(=O)N[C@@H](Cc1ccccc1)C(=O)N[C@@H](Cc1ccccc1)C(=O)O [hydrogel (L), PFB-Gly-Phe-Phe]	state of hydrogel at 4° C. [3]: liquid; state of hydrogel at 37° C. [3]: colloidal state
5×10^3 Pa	43 °C	O=C(Cc1c(F)c(F)c(F)c(F)c1F)N[C@@H](Cc1ccc(O)cc1)C(=O)N[C@@H](Cc1ccccc1)C(=O)O [hydrogel (C), PFB-Tyr-Phe]	viability [4]: ~100%; IC50 (Hela cell [5]): > 500 µM; viability [6]: ~100%; IC50 (CTX TNA2 cell [7]): > 500 µM; viability [8]: ~100%; IC50 (MCF-7 cell): > 500 µM; wound healing after 48 hours (Hela cell [9]): healed completely; healing effect (CTX TNA2 cell [10]): better than that of Control
7×10^2 Pa	69 °C	CC(C)C[C@@H](NC(=O)Cc1c(F)c(F)c(F)c(F)c1F)C(=O)N[C@H](Cc1ccccc1)C(=O)O [hydrogel (J), PFB-D-L-D-F]	–
10^4 Pa	48 °C	O=C(O)CNC(=O)[C@H](Cc1ccccc1)NC(=O)Cc1c(F)c(F)c(F)c(F)c1F [hydrogel (B), PFB-Phe-Gly]	wound healing after 48 hours (Hela cell [9]): healed completely
2×10^3 Pa	55 °C	CC(C)C[C@H](NC(=O)Cc1c(F)c(F)c(F)c(F)c1F)C(=O)N[C@@H](Cc1ccccc1)C(=O)O [hydrogel (I), PFB-Leu-Phe]	state of hydrogel at 4° C. [3]: liquid; state of hydrogel at 37° C. [3]: colloidal state
4×10^3 Pa	48 °C	C[C@H](NC(=O)[C@H](Cc1ccccc1)NC(=O)Cc1c(F)c(F)c(F)c(F)c1F)C(=O)O [hydrogel (E), PFB-Phe-Ala]	wound healing after 48 hours (Hela cell [9]): healed completely
2×10^4 Pa	45 °C	O=C(Cc1c(F)c(F)c(F)c(F)c1F)N[C@@H](Cc1ccccc1)C(=O)N[C@@H](Cc1ccccc1)C(=O)O [hydrogel (D), PFB-Phe-Phe]	–
